What was measured:
[1] = test system: Botrytis cinerea; test: Botrytis cinerea (gray mold) in vitro test, radial growth on potato dextrose agar; format: cell-based; conditions: 168 h, 300 ppm in potato dextrose agar, 22° C., 90% relative humidity, seven days, read-out: control compared to the untreated check (radial growth)
[2] = test system: Colletotrichum capsici; test: Colletotrichum capsici (anthracnose) in vitro test, radial growth on potato dextrose agar; format: cell-based; conditions: Colletotrichum truncatum, 168 h; 300 ppm in potato dextrose agar; 25° C., 60% relative humidity, seven days; read-out: control compared to the untreated check (radial growth)
[3] = test system: Alternaria solani; test: Alternaria solani (early blight of tomato/potato) in vitro test, radial growth on potato dextrose agar; format: cell-based; conditions: 168 h, 300 ppm in potato dextrose agar, 25° C., 60% relative humidity, seven days, read-out: control compared to the untreated check (radial growth)
[4] = test system: Rhizoctonia solani; test: Rhizoctonia solani (rice sheath blight/potato black scurf) in vitro test, radial growth on potato dextrose agar; format: cell-based; conditions: 168 h, 300 ppm in potato dextrose agar, 25° C., 60% relative humidity, seven days, read-out: control compared to the untreated check (radial growth)
[5] = test system: Pyricularia oryzae; test: microbe, parasite or virus in culture; format: cell-based; conditions: 168 h, read-out: control compared to the untreated check (radial growth)
[6] = test system: Phakopsora pachyrhizi; test: Phakopsora pachyrhizi test in soybean, preventive, in vivo on plants; conditions: in Glycine max, read-out: Efficacy (% control), disease severity compared to the untreated check
[7] = test system: Septoria lycopersici/Corynespora cassicola (CORYCA); test: Septoria lycopersici/Corynespora cassicola (CORYCA) (leaf spot of tomato) in vitro test, radial growth on potato dextrose agar; format: cell-based; conditions: 168 h, 300 ppm in potato dextrose agar, 25° C., 70% relative humidity, seven days, read-out: control compared to the untreated check (radial growth)

CCN(C)C=Nc1cc(C)cc(Cc2cccc(Cl)c2)c1Cl [Compound 27, N′-(2-chloro-3-(3-chlorobenzyl)-5-methylphenyl)-N-ethyl-N-methylformimidamide]
≥ 70%: inhibition of growth at 300 ppm [1] | inhibition of growth at 300 ppm [2] | inhibition of growth at 300 ppm [3] | inhibition of growth at 300 ppm [4]

CCN(C)C=Nc1cc(F)cc(Nc2ccc3ncsc3c2)c1C [Compound 225, N′-(3-(benzo[d]thiazol-6-ylamino)-5-fluoro-2-methylphenyl)-N-ethyl-N-methylformimidamide]
≥ 70%: inhibition of growth at 300 ppm [5] | inhibition of growth at 300 ppm [2] | inhibition of growth at 300 ppm [3]

CCN(C)C=Nc1cc(F)cc(N(C)c2cccc(OC)c2)c1C [Compound 39, N-ethyl-N′-(5-fluoro-3-((3-methoxyphenyl)(methyl)amino)-2-methylphenyl)-N-methylformimidamide]
≥ 70%: inhibition of growth at 300 ppm [5] | pest or weed control at 500 ppm [6] | inhibition of growth at 300 ppm [2] | inhibition of growth at 300 ppm [3]

CCN(C)C=Nc1cc(C)cc(N(C)c2ccc(Cl)cc2F)c1Cl [Compound 156, N′-(2-chloro-3-((4-chloro-2-fluorophenyl)(methyl)amino)-5-methylphenyl)-N-ethyl-N-methylformimidamide]
≥ 70%: pest or weed control at 500 ppm [6] | inhibition of growth at 300 ppm [2] | inhibition of growth at 300 ppm [3]

CCN(C)C=Nc1cc(C)cc(N(C)c2ccccc2F)c1C [Compound 7, N-ethyl-N′-(3-((2-fluorophenyl)(methyl)amino)-2,5-dimethylphenyl)-N-methylformimidamide]
≥ 70%: inhibition of growth at 300 ppm [5] | inhibition of growth at 300 ppm [2] | inhibition of growth at 300 ppm [3] | inhibition of growth at 300 ppm [4]

CCN(C)C=Nc1cc(Cl)cc(Cc2cccc(Br)c2)c1C [Compound 245, N′-(3-(3-bromobenzyl)-5-chloro-2-methylphenyl)-N-ethyl-N-methylformimidamide]
≥ 70%: inhibition of growth at 300 ppm [5] | inhibition of growth at 300 ppm [1] | inhibition of growth at 300 ppm [2] | inhibition of growth at 300 ppm [3] | inhibition of growth at 300 ppm [4]

CCN(C)C=Nc1cc(F)cc(Cc2ccc(C)cc2)c1C [Compound 171, N-ethyl-N′-(5-fluoro-2-methyl-3-(4-methylbenzyl)phenyl)-N-methylformimidamide]
≥ 70%: inhibition of growth at 300 ppm [5] | inhibition of growth at 300 ppm [1] | inhibition of growth at 300 ppm [2] | inhibition of growth at 300 ppm [3] | inhibition of growth at 300 ppm [4]

CCN(C)C=Nc1cc(C)cc(Nc2ccc(OC)cc2)c1Cl [Compound 61, N′-(2-chloro-3-((4-methoxyphenyl)amino)-5-methylphenyl)-N-ethyl-N-methylformimidamide]
≥ 70%: inhibition of growth at 300 ppm [5] | inhibition of growth at 300 ppm [2] | inhibition of growth at 300 ppm [3] | inhibition of growth at 300 ppm [4]

CCN(C)C=Nc1cc(C)cc(N(C)c2cccc(F)c2)c1Cl [Compound 40, N′-(2-chloro-3-((3-fluorophenyl)(methyl)amino)-5-methylphenyl)-N-ethyl-N-methylformimidamide]
≥ 70%: inhibition of growth at 300 ppm [5] | inhibition of growth at 300 ppm [1] | pest or weed control at 500 ppm [6] | inhibition of growth at 300 ppm [2] | inhibition of growth at 300 ppm [3]

CCN(C)C=Nc1cc(C)cc(Nc2ccc(OC)c(F)c2)c1Cl [Compound 255, N′-(2-chloro-3-((3-fluoro-4-methoxyphenyl)amino)-5-methylphenyl)-N-ethyl-N-methylformimidamide]
≥ 70%: inhibition of growth at 300 ppm [5] | pest or weed control at 500 ppm [6] | inhibition of growth at 300 ppm [2] | inhibition of growth at 300 ppm [3] | inhibition of growth at 300 ppm [4]

CCN(C)C=Nc1cc(C)cc(Nc2ccc(F)cc2F)c1Cl [Compound 75, N′-(2-chloro-3-((2,4-difluorophenyl)amino)-5-methylphenyl)-N-ethyl-N-methylformimidamide]
≥ 70%: inhibition of growth at 300 ppm [5] | inhibition of growth at 300 ppm [2] | inhibition of growth at 300 ppm [3] | inhibition of growth at 300 ppm [4]

CCN(C)C=Nc1cc(Cl)cc(Cc2ccccc2C(F)(F)F)c1C [Compound 244, N′-(5-chloro-2-methyl-3-(2-(trifluoromethyl)benzyl)phenyl)-N-ethyl-N-methylformimidamide]
≥ 70%: inhibition of growth at 300 ppm [5] | inhibition of growth at 300 ppm [1] | inhibition of growth at 300 ppm [2] | inhibition of growth at 300 ppm [3] | inhibition of growth at 300 ppm [4]

CCN(C)C=Nc1cc(F)cc(Nc2ccc(OC)c(F)c2)c1C [Compound 254, N-ethyl-N′-(5-fluoro-3-((3-fluoro-4-methoxyphenyl)amino)-2-methylphenyl)-N-methylformimidamide]
≥ 70%: inhibition of growth at 300 ppm [5] | inhibition of growth at 300 ppm [2] | inhibition of growth at 300 ppm [3] | inhibition of growth at 300 ppm [4]

CCN(C)C=Nc1cc(C)cc(N(C)c2cccc(C)c2F)c1Cl [Compound 139, N′-(2-chloro-3-((2-fluoro-3-methylphenyl)(methyl)amino)-5-methylphenyl)-N-ethyl-N-methylformimidamide]
≥ 70%: inhibition of growth at 300 ppm [5] | inhibition of growth at 300 ppm [2]

CCN(C)C=Nc1cc(C)cc(N(C)c2cccc(Cl)c2)c1Cl [Compound 41, N′-(2-chloro-3-((3-chlorophenyl)(methyl)amino)-5-methylphenyl)-N-ethyl-N-methylformimidamide]
≥ 70%: inhibition of growth at 300 ppm [5] | inhibition of growth at 300 ppm [1] | pest or weed control at 500 ppm [6] | inhibition of growth at 300 ppm [2] | inhibition of growth at 300 ppm [3]

CCN(C)C=Nc1cc(C)cc(Cc2cccc(C#N)c2)c1Cl [Compound 48, N′-(2-chloro-3-(3-cyanobenzyl)-5-methylphenyl)-N-ethyl-N-methylformimidamide]
≥ 70%: inhibition of growth at 300 ppm [5] | inhibition of growth at 300 ppm [2] | inhibition of growth at 300 ppm [3] | inhibition of growth at 300 ppm [4]

CCN(C)C=Nc1cc(F)cc(Cc2ccccc2)c1C [Compound 149, N′-(3-benzyl-5-fluoro-2-methylphenyl)-N-ethyl-N-methylformimidamide]
≥ 70%: inhibition of growth at 300 ppm [5] | inhibition of growth at 300 ppm [1] | pest or weed control at 500 ppm [6] | inhibition of growth at 300 ppm [3] | inhibition of growth at 300 ppm [4] | inhibition of growth at 300 ppm [7]

CCN(C)C=Nc1cc(C)cc(N(C)c2ccc(Cl)cc2)c1Cl [Compound 62, N′-(2-chloro-3-((4-chlorophenyl)(methyl)amino)-5-methylphenyl)-N-ethyl-N-methylformimidamide]
≥ 70%: inhibition of growth at 300 ppm [1] | inhibition of growth at 300 ppm [2] | inhibition of growth at 300 ppm [3]

CCN(C)C=Nc1cc(C)cc(Cc2cccc(F)c2)c1Cl [Compound 22, N′-(2-chloro-3-(3-fluorobenzyl)-5-methylphenyl)-N-ethyl-N-methylformimidamide]
≥ 70%: inhibition of growth at 300 ppm [5] | inhibition of growth at 300 ppm [1] | pest or weed control at 500 ppm [6] | inhibition of growth at 300 ppm [3] | inhibition of growth at 300 ppm [4] | inhibition of growth at 300 ppm [7]

CCN(C)C=Nc1cc(F)cc(Nc2cccc(F)c2)c1C [Compound 29, N-ethyl-N′-(5-fluoro-3-((3-fluorophenyl)amino)-2-methylphenyl)-N-methylformimidamide]
≥ 70%: inhibition of growth at 300 ppm [5] | inhibition of growth at 300 ppm [1] | pest or weed control at 500 ppm [6] | inhibition of growth at 300 ppm [3] | inhibition of growth at 300 ppm [4] | inhibition of growth at 300 ppm [7]

CCN(C)C=Nc1cc(F)cc(Cc2ccc(Cl)cc2)c1C [Compound 172, N′-(3-(4-chlorobenzyl)-5-fluoro-2-methylphenyl)-N-ethyl-N-methylformimidamide]
≥ 70%: inhibition of growth at 300 ppm [5] | inhibition of growth at 300 ppm [1] | inhibition of growth at 300 ppm [2] | inhibition of growth at 300 ppm [3] | inhibition of growth at 300 ppm [4]
